According to US20230135635A1, “INHIBITORS OF ULK1/2 AND METHODS OF USING SAME” (SALK INSTITUTE FOR BIOLOGICAL STUDIES, priority 2020, published 2023):
pIC50: −log10 of the molar value.

How the values were obtained:
NanoLuc®-ULK1 Fusion = biological target: T1, NanoLuc®-ULK1 Fusion (Homo sapiens, UniProt O75385); assay: ULK1 NanoBRET assay in HEK293T cells; type: cell-based
T1 construct: host or cells: HEK293T
T1 sequence (O75385 1-1050): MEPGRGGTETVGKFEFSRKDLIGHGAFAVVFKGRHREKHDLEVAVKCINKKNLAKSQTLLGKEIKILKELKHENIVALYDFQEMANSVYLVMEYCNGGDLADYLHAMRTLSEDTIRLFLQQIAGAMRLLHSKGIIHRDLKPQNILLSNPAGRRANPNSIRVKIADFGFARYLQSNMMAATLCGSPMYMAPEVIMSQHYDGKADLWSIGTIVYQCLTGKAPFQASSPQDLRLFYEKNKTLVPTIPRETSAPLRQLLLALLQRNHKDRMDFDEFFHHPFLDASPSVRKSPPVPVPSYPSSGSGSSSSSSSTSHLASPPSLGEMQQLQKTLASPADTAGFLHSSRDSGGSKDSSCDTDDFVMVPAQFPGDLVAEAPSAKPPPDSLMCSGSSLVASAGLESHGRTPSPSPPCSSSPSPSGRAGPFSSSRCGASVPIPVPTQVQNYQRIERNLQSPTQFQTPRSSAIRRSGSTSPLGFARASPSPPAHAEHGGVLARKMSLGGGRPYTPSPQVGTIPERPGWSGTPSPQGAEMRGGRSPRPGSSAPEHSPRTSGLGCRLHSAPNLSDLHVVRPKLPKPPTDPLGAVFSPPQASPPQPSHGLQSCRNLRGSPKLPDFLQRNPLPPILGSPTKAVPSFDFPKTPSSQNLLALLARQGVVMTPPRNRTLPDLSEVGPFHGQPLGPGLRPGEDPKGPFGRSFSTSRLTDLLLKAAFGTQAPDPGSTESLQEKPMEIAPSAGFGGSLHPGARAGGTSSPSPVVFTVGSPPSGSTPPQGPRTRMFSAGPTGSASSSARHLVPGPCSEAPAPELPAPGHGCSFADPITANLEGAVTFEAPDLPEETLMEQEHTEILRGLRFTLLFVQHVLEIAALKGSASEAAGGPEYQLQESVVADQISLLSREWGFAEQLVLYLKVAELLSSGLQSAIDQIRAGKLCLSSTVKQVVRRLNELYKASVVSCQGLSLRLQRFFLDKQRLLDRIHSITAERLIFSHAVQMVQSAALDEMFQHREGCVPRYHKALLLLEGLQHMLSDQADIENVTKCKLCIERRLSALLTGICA
Description: IC50s were also measured by ULK1 NanoBRET assay according to the following protocol: Human embryonic kidney cells (HEK293T) were transfected with NanoLuc®-ULK1 Fusion Vector (Promega #NV2211) using jetPRIME transfection reagent (Polyplus Transfection #114-15). Following 24 h, cells were trypsinized and resuspended in Opti-MEM® I (1×), Reduced Serum Medium (Gibco, #11058-021). Approximately, 7,000 cells per well (in 34 μL total volume) were replated into non-binding surface 384 well plates. Complete NanoBRET 20× Tracer K-5 reagent was prepared according to the manufacturer's directions and 2 μL were added to each well of the 384 plate (assay plate). The assay plate was mixed on an orbital shaker for 15 seconds at 700 rpm. Compounds were serially diluted at 200× final concentration in 100% DMSO, then diluted to 10× final concentration in assay media (Opti-MEM® I, Reduced Serum Medium). Next, 4 μL 10× test compounds were added to each well of the assay plate, followed by mixing at 700 rpm for 15 seconds. The assay plate was incubated for 2 h in a 37 C incubator with 5% CO2 and then equilibrated to RT for 15 min. The 3× Complete Substrate plus Inhibitor Solution was prepared according to the manufacturer's directions with a concentration of Extracellular NanoLuc® Inhibitor of 60 μM to be used at a working concentration of […]. The 3× Complete Substrate plus Inhibitor Solution was mixed and 20 μL per well was added to the assay plate and incubated at RT for 2-3 min. Donor emission wavelength (450 nm) and acceptor emission wavelength (610 nm) were measured using an assay compatible luminometer (see manufacturer's specifications).

[1] = biological target: T2, recombinant human ULK1 protein (1-649) (Homo sapiens, UniProt O75385); assay: ULK1 inhibition assay (ADP Glo); type: biochemical
T2 construct: recombinant human ULK1 protein (1-649, SignalChem #U01-11G); purchased SignalChem U01-11G
T2 sequence (O75385 1-649): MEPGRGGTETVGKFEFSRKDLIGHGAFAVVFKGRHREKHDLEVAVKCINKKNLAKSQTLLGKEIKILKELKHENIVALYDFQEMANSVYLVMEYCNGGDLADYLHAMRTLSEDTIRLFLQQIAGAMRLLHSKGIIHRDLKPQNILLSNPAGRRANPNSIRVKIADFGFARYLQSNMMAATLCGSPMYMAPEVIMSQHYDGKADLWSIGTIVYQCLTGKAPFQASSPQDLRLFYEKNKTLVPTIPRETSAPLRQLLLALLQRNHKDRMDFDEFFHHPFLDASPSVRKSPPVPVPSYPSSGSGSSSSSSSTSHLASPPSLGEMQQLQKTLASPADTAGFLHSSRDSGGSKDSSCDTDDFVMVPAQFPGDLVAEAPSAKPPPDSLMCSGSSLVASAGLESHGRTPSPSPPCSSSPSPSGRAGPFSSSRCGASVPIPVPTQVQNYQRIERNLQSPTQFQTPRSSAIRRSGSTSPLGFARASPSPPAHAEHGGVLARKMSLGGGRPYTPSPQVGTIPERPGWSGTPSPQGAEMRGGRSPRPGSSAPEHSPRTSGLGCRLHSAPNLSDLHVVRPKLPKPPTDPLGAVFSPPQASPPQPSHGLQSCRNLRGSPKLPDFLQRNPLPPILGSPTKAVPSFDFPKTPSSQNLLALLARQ
How it was run: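 Recombinant ULK1 (2 ug/mL) phosphorylated myelin basic protein (80 ug/mL) at 25 uM ATP; ADP formed was detected by ADP-Glo after 1 h. Compounds ran in triplicate, 16-dose 3-fold serial dilution from 30 uM, to give IC50.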

[2] = Table 1, 25 uM ATP, MBP substrate, one hour

With `CNC(=O)c1ccccc1Nc1nc(Nc2cc(OC)c(OC)c(OC)c2)ncc1C#N` [Compound E9, 2-((5-cyano-2-((3,4,5-trimethoxyphenyl)amino)pyrimidin-4-yl)amino)-N-methylbenzamide] the pIC50 (NanoLuc®-ULK1 Fusion; Table 3) was > 7.00.

For `CNC(=O)c1ccccc1Nc1nc(Nc2ccc3c(c2)OCCO3)ncc1Br` [Compound E4, 2-((5-Bromo-2-((2,3-dihydrobenzo[b][1,4]dioxin-6-yl)amino)pyrimidin-4-yl)amino)-N-methylbenzamide], the pIC50 ([1]; Table 3) was 7.00 to 8.30 and the pIC50 (NanoLuc®-ULK1 Fusion; Table 3) was < 7.00.

In the case of `CNC(=O)c1ccccc1Nc1nc(Nc2cc(OC)c(OC)c(OC)c2)ncc1C1CC1` [Compound E10, 2-((5-Cyclopropyl-2-((3,4,5-trimethoxyphenyl)amino)pyrimidin-4-yl)amino)-N-methyl-benzamide], the pIC50 (NanoLuc®-ULK1 Fusion; Table 3) was < 7.00.

In the case of `CNC(=O)c1ccccc1Nc1nc(Nc2ccc3c(c2)CCN(CCOC)C3)ncc1Cl` [Compound A117, 2-((5-Chloro-2-((2-(2-methoxyethyl)-1,2,3,4-tetrahydroisoquinolin-6-yl)amino)pyrimidin-4-yl)amino)-N-methylbenzamide], the pIC50 [1, 2] was 8.00 to 9.00 and the pIC50 (NanoLuc®-ULK1 Fusion; Table 1, 2 h incubation) was > 7.00.

In the case of `C#CCC(=O)N1CCc2cc(Nc3ncc(C(F)(F)F)c(NC4CC4)n3)ccc2C1` [Compound A84], the pIC50 [1, 2] was 8.00 to 9.00 and the pIC50 (NanoLuc®-ULK1 Fusion; Table 1, 2 h incubation) was < 7.00.

In the case of `CNC(=O)c1ccccc1Nc1nc(Nc2cc(OC)c(OC)c(OC)c2)ncc1I` [Compound E13, 2-((5-iodo-2-((3,4,5-trimethoxyphenyl)amino)pyrimidin-4-yl)amino)-N-methylbenzamide], the pIC50 (NanoLuc®-ULK1 Fusion; Table 3) was > 7.00.

`CNC(=O)c1ccccc1Nc1nc(Nc2ccc3c(c2)CCNC3)ncc1C(F)(F)F` [Compound A120, N-Methyl-2-((2-((1,2,3,4-tetrahydroisoquinolin-6-yl)amino)-5-(trifluoromethyl)pyrimidin-4-yl)amino)benzamide] was tested, and the pIC50 [1, 2] was 8.00 to 9.00 and the pIC50 (NanoLuc®-ULK1 Fusion; Table 1, 2 h incubation) was > 7.00.

In the case of `CNC(=O)c1ccccc1Nc1nc(Nc2ccc3c(c2)CCN(CCOC)C3)ncc1Br` [Compound A118, 2-((5-Bromo-2-((2-(2-methoxyethyl)-1,2,3,4-tetrahydroisoquinolin-6-yl)amino)pyrimidin-4-yl)amino)-N-methylbenzamide], the pIC50 [1, 2] was 8.00 to 9.00 and the pIC50 (NanoLuc®-ULK1 Fusion; Table 1, 2 h incubation) was > 7.00.

`FC(F)(F)c1cnc(Nc2ccc3c(c2)CCN(Cc2c[nH]cn2)C3)nc1NC1CC1` [Compound A51] was tested, and the pIC50 [1, 2] was > 9.00 and the pIC50 (NanoLuc®-ULK1 Fusion; Table 1, 2 h incubation) was > 7.00.

With `CNC(=O)c1ccccc1Nc1nc(Nc2ccc3c(c2)OCO3)ncc1Br` [Compound E5, 2-((2-(Benzo[d][1,3]dioxol-5-ylamino)-5-bromopyrimidin-4-yl)amino)-N-methylbenzamide] the pIC50 ([1]; Table 3) was 7.00 to 8.30 and the pIC50 (NanoLuc®-ULK1 Fusion; Table 3) was < 7.00.

`COCCN1CCc2cc(Nc3ncc(C(F)(F)F)c(NC(C)C)n3)ccc2C1` [Compound A122, N^4-Isopropyl-N^2-(2-(2-methoxyethyl)-1,2,3,4-tetrahydroisoquinolin-6-yl)-5-(trifluoromethyl)pyrimidine-2,4-diamine] was tested, and the pIC50 [1, 2] was 8.00 to 9.00 and the pIC50 (NanoLuc®-ULK1 Fusion; Table 1, 2 h incubation) was > 7.00.

With `O=C(CN1CCc2cc(Nc3ncc(C(F)(F)F)c(NC4CC4)n3)ccc2C1)N1CCOCC1` [Compound A47] the pIC50 [1, 2] was > 9.00 and the pIC50 (NanoLuc®-ULK1 Fusion; Table 1, 2 h incubation) was > 7.00.

`CNC(=O)c1ccccc1Nc1nc(Nc2ccc3c(c2)OCO3)ncc1C(F)(F)F` [Compound E6, 2-((2-(Benzo[d][1,3]dioxol-5-ylamino)-5-(trifluoromethyl)pyrimidin-4-yl)amino)-N-methyl benzamide] was tested, and the pIC50 ([1]; Table 3) was 7.00 to 8.30 and the pIC50 (NanoLuc®-ULK1 Fusion; Table 3) was < 7.00.

In the case of `CNC(=O)c1ccccc1Nc1nc(Nc2cc(OC)c(OC)c(OC)c2)ncc1C` [Compound E11, N-Methyl-2-((5-methyl-2-((3,4,5-trimethoxyphenyl)amino)pyrimidin-4-yl)amino)benzamide], the pIC50 (NanoLuc®-ULK1 Fusion; Table 3) was < 7.00.

In the case of `CNC(=O)c1ccccc1Nc1nc(Nc2cc(OC)c(OC)c(OC)c2)ncc1F` [Compound E12, 2-((5-Fluoro-2-((3,4,5-trimethoxyphenyl)amino)pyrimidin-4-yl)amino)-N-methylbenzamide], the pIC50 (NanoLuc®-ULK1 Fusion; Table 3) was < 7.00.

`CNC(=O)c1ccccc1Nc1nc(Nc2ccc3c(c2)OCCO3)ncc1C(F)(F)F` [Compound E7, 2-((2-((2,3-Dihydrobenzo[b][1,4]dioxin-6-yl)amino)-5-(trifluoromethyl)pyrimidin-4-yl)amino)-N-methylbenzamide] was tested, and the pIC50 ([1]; Table 3) was 7.00 to 8.30 and the pIC50 (NanoLuc®-ULK1 Fusion; Table 3) was < 7.00.

With `CNC(=O)c1ccccc1Nc1nc(Nc2ccc3c(c2)CCN(CC(=O)N2CCOCC2)C3)ncc1Br` [Compound A127, 2-{5-Bromo-2-[2-(2-morpholin-4-yl-2-oxo-ethyl)-1,2,3,4-tetrahydro-isoquinolin-6-ylamino]-pyrimidin-4-ylamino}-N-methyl-benzamide] the pIC50 [1, 2] was < 8.00.

In the case of `CN(C)CCN1CCc2cc(Nc3ncc(C(F)(F)F)c(NC4CC4)n3)ccc2C1` [Compound A44], the pIC50 [1, 2] was > 9.00.

For `NC(=O)N1CCc2cc(Nc3ncc(C(F)(F)F)c(NC4CC4)n3)ccc2C1` [Compound A14], the pIC50 [1, 2] was 8.00 to 9.00.

With `CC(C)(C)OC(=O)N1CCc2cc(Nc3ncc(N)c(NC4CC4)n3)ccc2C1` [Compound A22] the pIC50 [1, 2] was < 8.00.

Work on `FC(F)(F)c1cnc(Nc2ccc3c(c2)CN(C2COC2)CC3)nc1NC1CC1` [Compound A102] yielded a pIC50 [1, 2] of 8.00 to 9.00.

`CNC(=O)c1ccccc1Nc1nc(Nc2ccc(N3CCNCC3)cc2)ncc1Br` [Compound E24, 2-((5-Bromo-2-((4-(piperazin-1-yl)phenyl)amino)pyrimidin-4-yl)amino)-N-methylbenzamide] was tested, and the pIC50 ([1]; Table 3) was 7.00 to 8.30.

In the case of `CN(C)c1ccc(Nc2ncc(Br)c(Nc3ccccc3CO)n2)cc1` [Compound C11], the pIC50 ([1]; Table 3) was > 8.30.

`COC(=O)c1ccccc1Oc1ncnc(Nc2cc(OC)c(OC)c(OC)c2)n1` [Compound B48] was tested, and the pIC50 ([1]; Table 2) was < 6.00.

In the case of `CC(=O)CN1CCc2cc(Nc3ncc(C(F)(F)F)c(NC4CC4)n3)ccc2C1` [Compound A69], the pIC50 [1, 2] was > 9.00.

With `O=C(Nc1ccc(Nc2ncc(Br)c(Nc3ccccc3CO)n2)cc1)C1CC1` [Compound C12] the pIC50 ([1]; Table 3) was > 8.30.

For `COc1cc(Nc2ncc(Br)c(Nc3ccccc3CNC3CC3)n2)cc(OC)c1OC` [Compound C24], the pIC50 ([1]; Table 3) was < 7.00.

With `O=C(CN1CCOCC1)N1CCc2cc(Nc3ncc(C(F)(F)F)c(NC4CC4)n3)ccc2C1` [Compound A115] the pIC50 [1, 2] was 8.00 to 9.00.
